# From patent US20100285959A1, “HERBICIDAL MIXTURES” (priority 2006, published 2010)
# Key:
# slender amaranth (AMAVI) = test: Test 12 field trial, preemergence; assay type: in vivo, Amaranthus viridis; set-up: scale not given here; conditions: Cpd 2 or Cpd 1 62 g a.i./ha, Diuron 2000 g a.i./ha
# Description: (§1) In early-mid spring season, corn seeds (hybrid ‘Pioneer 3041’) were planted 5 cm deep and sugarcane nodes (variety RB-72.454) were planted 10 cm deep in separate plots in a clay soil having 2.6% organic matter and a pH of 5.6. Plots were 24 m long by 1.5 m wide with rows spaced 80 cm (corn) or 140 cm (sugarcane) apart. Corn seeds were spaced 15 cm apart and sugarcane nodes were spaced 10 cm apart within the rows. At the same time, weed seeds were broadcast over the surface of separate plots without a crop, one weed species per plot. The weed plots were rotary tilled to incorporate the weed seeds to a variety of depths. The field was managed using conventional tillage practices.
# wild poinsettia (EPHHL) = test: Test 12 field trial, preemergence; assay type: in vivo, Euphorbia heterophylla; set-up: scale not given here; conditions: Cpd 2 or Cpd 1 62 g a.i./ha, Diuron 2000 g a.i./ha
# Description: as §1
# common sugarcane (SACOF) = test: Test 12 field trial, preemergence; assay type: in vivo, Saccharum officinarum; set-up: scale not given here; conditions: Cpd 2 or Cpd 1 62 g a.i./ha, Diuron 2000 g a.i./ha
# Description: as §1
# annual grasses (GGGAN) = test: Test 7 field trial, preemergence; assay type: in vivo, Gramineae
# Description: (§2) Plots were 7.6 m long by 3.0 m wide with rows spaced 76 cm apart. Seeds were spaced 15 cm apart within the rows. The field was managed using conventional tillage practices. […] Wild radish was evaluated 14 and 28 days after application. […] Results are the means of the three replicates.
# wild radish (RAPRA) = test: Test 7 field trial, preemergence; assay type: in vivo, Raphanus raphanistrum
# Description: as §2
# redroot pigweed (AMARE) = test: Test 7 field trial, preemergence; assay type: in vivo, Amaranthus retroflexus
# Description: as §2
# [1] = test system: smallflower buttercup (RANAB); test: Test 9 field trial, emerged weeds before corn planting; assay type: in vivo, Ranunculus abortivus; conditions: g a.i./ha: Cpd 2 100, Glyphosate 1540, Paraquat 1150
# Description: Corn seeds (hybrid ‘Pioneer 34M91 RR’) were planted in mid spring season, about 3.8 cm deep in a silty clay loam soil having a pH of 6.7. Plots were 9.1 m long by 3.0 m. The field was managed using no-till practices. […] Compound 2 and paraquat treatments, alone and in combination, also included a surfactant. Glyphosate, alone and with Compound 2, included ammonium sulfate in the treatment mixture. […] The effects on the weeds in the treated plots and untreated control plots were recorded 7, 14, 23, 30 and 57 days after application. Most of the weed species could not be evaluated at every timing. Corn response was only evaluated 57 days after application. […] Results are the means of the three replicates.
# giant foxtail (SETFA) = test: Test 3 field trial, emerged weeds before corn planting; assay type: in vivo, Setaria faberi; conditions: 68 DAA; Cpd 2 100, glyphosate 1540, paraquat 1150 g a.i./ha, alone or combined
# Description: Corn seeds (hybrid ‘Pioneer 33J56’) were planted in early spring season, 3.8 cm deep in a silt loam soil having 2.4% organic matter and a pH of 6. Plots were 6.1 m long by 2.7 m wide with rows spaced 91.4 cm apart. The field was managed using no-till practices. […] Compound 2 and paraquat treatments, alone and in combination, also included a surfactant. Glyphosate, alone and with Compound 2, included ammonium sulfate in the treatment mixture. […] The effects on the weeds in the treated plots and untreated control plots were recorded 30, 42, 46 and 68 days after application. Most of the weed species could not be evaluated at every timing. Corn response was not evaluated because the growth was highly variable depending on the efficacy of the weed control treatments. […] Results are the means of the three replicates.
# galium (GALAP) = test: Test 21 growth chamber, postemergence; assay type: in vivo, Galium aparine; conditions: 19 DAA
# Description: (§3) A test was conducted to evaluate the effects on winter barley (HORVW, Hordeum vulgare L.), winter wheat (TRZAW, Triticum aestivum L.), and several weed species, of mixtures of Compound 2 with the commercial herbicide (2,4-dichlorophenoxy)acetic acid (2,4-D), an auxin mimic. […] Plants were treated postemergence at the 2-4 leaf growth stage, and each treatment was replicated one time. […] Plants were watered as needed. […] Results are from single replicates.
# winter wheat (TRZAW) = test: Test 20 growth chamber, postemergence; assay type: in vivo, Triticum aestivum; conditions: 25 DAA
# Description: A test was conducted to evaluate the effects on winter barley (HORVW, Hordeum vulgare L.) and winter wheat (TRZAW, Triticum aestivum L.) of mixtures of Compound 2 with the commercial herbicides (2,4-dichlorophenoxy)acetic acid (2,4-D) and (4-chloro-2-methylphenoxy)acetic acid (MCPA), auxin mimics. […] Plants were treated postemergence at the 2-leaf growth stage, and each treatment was replicated a total of four times (three times in the loam/sand blend and one time in RediEarth). […] Plants were watered as needed. […] Results are the means of the four replicates.
# field violet (VIOAR) = test: Test 21 growth chamber, postemergence; assay type: in vivo, Viola arvensis; conditions: 19 DAA
# Description: as §3
# wild buckwheat (POLCO) = test: Test 21 growth chamber, postemergence; assay type: in vivo, Polygonum convolvulus; conditions: 19 DAA
# Description: as §3
# Russian thistle (SASKR) = test: Test 22 growth chamber, postemergence; assay type: in vivo, Salsola kali; conditions: 25 DAA
# Description: A test was conducted to evaluate the effects on winter barley (HORVW, Hordeum vulgare L.), winter wheat (TRZAW, Triticum aestivum L.), and several weed species of mixtures of Compound 2 with the commercial herbicides (2,4-dichlorophenoxy)acetic acid (2,4-D) and (4-chloro-2-methylphenoxy)acetic acid (MCPA), auxin mimics. […] Plants were treated postemergence at the 2-4 leaf growth stage, except KCHSC, SASKR and STEME which were in the 4-8 leaf growth stage. Each treatment was replicated one time. […] Plants were watered as needed. […] Results are from single replicates.
# [2] = 2,4-D or MCPA alone 250 g a.i./ha
compound,measurement,setting,value
"Nc1nc(C2CC2)nc(C(=O)O)c1Cl [Compound 1, 6-amino-5-chloro-2-cyclopropyl-4-pyrimidinecarboxylic acid]",AMAVI Obs,slender amaranth (AMAVI); 15 DAA,90
same,AMAVI Obs,slender amaranth (AMAVI); 29 DAA,60
same,AMAVI Obs,slender amaranth (AMAVI); 48 DAA,40
same,AMAVI Obs,slender amaranth (AMAVI); 61 DAA,40
same,EPHHL Obs,wild poinsettia (EPHHL); 15 DAA,40
same,EPHHL Obs,wild poinsettia (EPHHL); 29 DAA,70
same,EPHHL Obs,wild poinsettia (EPHHL); 48 DAA,50
same,EPHHL Obs,wild poinsettia (EPHHL); 61 DAA,40
same,SACOF Obs,common sugarcane (SACOF); 15 DAA,0
same,SACOF Obs,common sugarcane (SACOF); 29 DAA,0
same,SACOF Obs,common sugarcane (SACOF); 48 DAA,0
same,SACOF Obs,common sugarcane (SACOF); 61 DAA,5
"COC(=O)c1nc(C2CC2)nc(N)c1Cl [Compound 2, methyl 6-amino-5-chloro-2-cyclopropyl-4-pyrimidinecarboxylate]",GGGAN Obs,"annual grasses (GGGAN); 14 DAA, 125 g a.i./ha",33%
same,GGGAN Obs,"annual grasses (GGGAN); 14 DAA, 250 g a.i./ha",65%
same,GGGAN Obs,"annual grasses (GGGAN); 14 DAA, 500 g a.i./ha",67%
same,GGGAN Obs,"annual grasses (GGGAN); 28 DAA, 125 g a.i./ha",33%
same,GGGAN Obs,"annual grasses (GGGAN); 28 DAA, 250 g a.i./ha",48%
same,GGGAN Obs,"annual grasses (GGGAN); 28 DAA, 500 g a.i./ha",52%
same,GGGAN Obs,"annual grasses (GGGAN); 62 DAA, 125 g a.i./ha",0%
same,GGGAN Obs,"annual grasses (GGGAN); 62 DAA, 250 g a.i./ha",0%
same,GGGAN Obs,"annual grasses (GGGAN); 62 DAA, 500 g a.i./ha",0%
same,RAPRA Obs,"wild radish (RAPRA); 14 DAA, 125 g a.i./ha",35%
same,RAPRA Obs,"wild radish (RAPRA); 14 DAA, 250 g a.i./ha",53%
same,RAPRA Obs,"wild radish (RAPRA); 14 DAA, 500 g a.i./ha",73%
same,RAPRA Obs,"wild radish (RAPRA); 28 DAA, 250 g a.i./ha",38%
same,RAPRA Obs,"wild radish (RAPRA); 28 DAA, 500 g a.i./ha",58%
same,AMAVI Obs,slender amaranth (AMAVI); 15 DAA,90
same,AMAVI Obs,slender amaranth (AMAVI); 29 DAA,60
same,AMAVI Obs,slender amaranth (AMAVI); 48 DAA,40
same,AMAVI Obs,slender amaranth (AMAVI); 61 DAA,0
same,AMARE Obs,"redroot pigweed (AMARE); 14 DAA, 125 g a.i./ha",97%
same,AMARE Obs,"redroot pigweed (AMARE); 14 DAA, 250 g a.i./ha",100%
same,AMARE Obs,"redroot pigweed (AMARE); 14 DAA, 500 g a.i./ha",100%
same,AMARE Obs,"redroot pigweed (AMARE); 28 DAA, 125 g a.i./ha",92%
same,AMARE Obs,"redroot pigweed (AMARE); 28 DAA, 250 g a.i./ha",100%
same,AMARE Obs,"redroot pigweed (AMARE); 28 DAA, 500 g a.i./ha",100%
same,AMARE Obs,"redroot pigweed (AMARE); 62 DAA, 125 g a.i./ha",80%
same,AMARE Obs,"redroot pigweed (AMARE); 62 DAA, 500 g a.i./ha",100%
same,EPHHL Obs,wild poinsettia (EPHHL); 15 DAA,40
same,EPHHL Obs,wild poinsettia (EPHHL); 29 DAA,60
same,EPHHL Obs,wild poinsettia (EPHHL); 48 DAA,40
same,EPHHL Obs,wild poinsettia (EPHHL); 61 DAA,40
same,RANAB Obs,[1]; 7 DAA,45%
same,RANAB Obs,[1]; 14 DAA,40%
same,RANAB Obs,[1]; 23 DAA,60%
same,RANAB Obs,[1]; 30 DAA,65%
same,SETFA Obs,giant foxtail (SETFA),40%
same,Postemergence GALAP Obs,galium (GALAP); Cpd 2 alone 16 g a.i./ha,90
same,Postemergence TRZAW Obs,winter wheat (TRZAW); Cpd 2 alone 4 g a.i./ha,23
same,Postemergence TRZAW Obs,winter wheat (TRZAW); Cpd 2 alone 8 g a.i./ha,28
same,Postemergence TRZAW Obs,winter wheat (TRZAW); Cpd 2 alone 16 g a.i./ha,35
same,SACOF Obs,common sugarcane (SACOF); 15 DAA,0
same,SACOF Obs,common sugarcane (SACOF); 29 DAA,0
same,SACOF Obs,common sugarcane (SACOF); 48 DAA,0
same,SACOF Obs,common sugarcane (SACOF); 61 DAA,5
same,Postemergence VIOAR Obs,field violet (VIOAR); Cpd 2 alone 16 g a.i./ha,60
same,Postemergence POLCO Obs,wild buckwheat (POLCO); Cpd 2 alone 16 g a.i./ha,70
same,Postemergence SASKR Obs,Russian thistle (SASKR); Cpd 2 alone 4 g a.i./ha,50
same,Postemergence SASKR Obs,Russian thistle (SASKR); Cpd 2 alone 8 g a.i./ha,50
same,Postemergence SASKR Obs,Russian thistle (SASKR); Cpd 2 alone 16 g a.i./ha,55
"CCc1cccc(C)c1N(C(=O)CCl)[C@@H](C)COC [S-Metolachlor, S-metolachlor, reference compound]",GGGAN Obs,"annual grasses (GGGAN); 14 DAA, 1000 g a.i./ha",97%
same,GGGAN Obs,"annual grasses (GGGAN); 28 DAA, 1000 g a.i./ha",93%
same,GGGAN Obs,"annual grasses (GGGAN); 62 DAA, 1000 g a.i./ha",75%
same,RAPRA Obs,"wild radish (RAPRA); 14 DAA, 1000 g a.i./ha",40%
same,RAPRA Obs,"wild radish (RAPRA); 28 DAA, 1000 g a.i./ha",15%
same,AMARE Obs,"redroot pigweed (AMARE); 14 DAA, 1000 g a.i./ha",97%
same,AMARE Obs,"redroot pigweed (AMARE); 28 DAA, 1000 g a.i./ha",78%
same,AMARE Obs,"redroot pigweed (AMARE); 62 DAA, 1000 g a.i./ha",15%
"O=C(O)COc1ccc(Cl)cc1Cl [2,4-D, (2,4-dichlorophenoxy)acetic acid]",Postemergence GALAP Obs,"galium (GALAP); 2,4-D alone 125 g a.i./ha",30
same,Postemergence GALAP Obs,"galium (GALAP); 2,4-D alone 250 g a.i./ha",35
same,Postemergence TRZAW Obs,winter wheat (TRZAW); [2],18
same,Postemergence VIOAR Obs,"field violet (VIOAR); 2,4-D alone 125 g a.i./ha",0
same,Postemergence VIOAR Obs,"field violet (VIOAR); 2,4-D alone 250 g a.i./ha",20
same,Postemergence POLCO Obs,"wild buckwheat (POLCO); 2,4-D alone 125 g a.i./ha",20
same,Postemergence POLCO Obs,"wild buckwheat (POLCO); 2,4-D alone 250 g a.i./ha",20
same,Postemergence SASKR Obs,Russian thistle (SASKR); [2],60
O=C(O)CNCP(=O)(O)O [Glyphosate],RANAB Obs,[1]; 7 DAA,50%
same,RANAB Obs,[1]; 14 DAA,80%
same,RANAB Obs,[1]; 23 DAA,95%
same,RANAB Obs,[1]; 30 DAA,100%
same,SETFA Obs,giant foxtail (SETFA),0%
